Assay results taken from US7176205B2, “Bi-pyridinyl derivatives as NK-1 antagonists” (Hoffmann-La Roche Inc., priority 2005, dated 2007).
Values after ≈ are worked out from the molar mass of the structure shown.

Assays:
Equilibrium solubility = assay type: physicochemical; settings: citrate buffer, aqueous buffer, thermodynamic from solid; pH 4.2, 0.15 M Citrat-buffer, 21° C.
Method: Method Description Equilibrium Solubility
Equilibrium solubility values were determined at pH 4.2 (0.15 M Citrat-buffer). A known amount of drug, generally 1–2 mg, was added to 250 μl of buffer (glass tubes) and the resulting suspension was stirred for 2 h (21° C.), after 5 minutes of sonification. The pH of the solution was checked and corrected if necessary (in case of pH correction, the solution was once more shaken and equilibrated) and after 24 h the suspension was filtered through a 0.65-μm filter. The filtered solution was then assayed by HPLC to determine the drug concentration. In cases where the drug had completely dissolved in the buffer, the value for equilibrium solubility was assumed to be higher than the value determined by HPLC and was reported as such. Stock solutions (˜1 mg/ml) in DMSO were used in the preparation of a calibration curve in the related buffer using HPLC analytics.

human NK-1 receptor = target: T1, human NK-1 receptor (Homo sapiens, UniProt P25103); assay: NK-1 receptor binding, [3H]substance P displacement; settings: human NK-1 receptors in CHO cells, [3H]substance P 0.6 nM; read-out: pKi(NK-1) (converted)
T1 construct: expressed in transfected cells; host or cells: CHO cells infected using the Semliki virus expression system; membrane suspension
T1 sequence (P25103 whole entry): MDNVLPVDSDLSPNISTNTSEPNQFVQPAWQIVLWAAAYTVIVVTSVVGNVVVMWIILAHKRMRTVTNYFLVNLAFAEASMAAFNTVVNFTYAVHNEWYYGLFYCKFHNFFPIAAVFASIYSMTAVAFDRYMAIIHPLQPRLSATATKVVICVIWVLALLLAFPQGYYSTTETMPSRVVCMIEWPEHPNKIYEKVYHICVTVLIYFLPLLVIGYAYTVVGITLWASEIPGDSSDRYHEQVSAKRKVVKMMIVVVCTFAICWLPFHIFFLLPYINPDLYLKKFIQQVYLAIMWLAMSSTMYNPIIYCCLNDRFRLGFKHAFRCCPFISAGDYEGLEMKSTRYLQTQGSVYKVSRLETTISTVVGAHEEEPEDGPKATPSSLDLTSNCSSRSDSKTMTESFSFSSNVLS
Method: The affinity of test compounds for the NK-1 receptor was evaluated at human NK-1 receptors in CHO cells infected with the human NK-1 receptor (using the Semliki virus expression system) and radiolabelled with [^3H]substance P (final concentration 0.6 nM). Binding assays were performed in HEPES buffer (50 mM, pH 7.4) containing BSA (0.04%) leupeptin (8 μg/ml), MnCl2 (3 mM) and phosphoramidon (2 μM). Binding assays consisted of 250 μl of membrane suspension (1.25×10^5 cells/assay tube), […] of buffer of displacing agent and 125 μl of [^3H]substance P. Displacement curves were determined with at least seven concentrations of the compound. The assay tubes were incubated for 60 min at room temperature after which time the tube contents were rapidly filtered under vacuum through GF/C filters presoaked for 60 min with PEI (0.3%) with 2×2 ml washes of HEPES buffer (50 mM, pH 7.4). The radioactivity retained on the filters was measured by scintillation counting. All assays were performed in triplicate in at least 2 separate experiments.

| Structure (SMILES) | solubility at 24 h (Equilibrium solubility) [µg/mL] | Ki (human NK-1 receptor) [nM] |
| --- | --- | --- |
| Cc1ccccc1-c1cc(N2CCN(C)CC2)ncc1C(=O)N(C)Cc1cc(C(F)(F)F)cc(C(F)(F)F)c1 [EP 1 035 115A1example 12, reference compound] | 495 (≈ 0.899 mM) |  |
| Cc1ccccc1-c1cc(N2CCN(C)CC2)ncc1N(C)C(=O)C(C)(C)c1cc(C(F)(F)F)cc(C(F)(F)F)c1 [EP 1 035 115A1example 14, reference compound] | 26 (≈ 0.0449 mM) | 0.977 |
| Cc1ncccc1-c1cc(N2CCN(C)CC2)ncc1C(=O)N(C)Cc1cc(C(F)(F)F)cc(C(F)(F)F)c1 [Example 1, 2-Methyl-6′-(4-methyl-piperazin-1-yl)-[3,4′]bipyridinyl-3′-carboxylic acid (3,5-bis-trifluoromethyl-benzyl)-methyl-amide] | 13700 (≈ 24.8 mM) | 2.75 |
| Cc1ncccc1-c1cc(N2CCN(C)CC2)ncc1N(C)C(=O)C(C)(C)c1cc(C(F)(F)F)cc(C(F)(F)F)c1 [Example 2, 2-(3,5-Bis-trifluoromethyl-phenyl)-N-methyl-N-[2-methyl-6′-(4-methyl-piperazin-1-yl)-[3,4′]bipyridinyl-3′-yl]-isobutyramide] | 7500 (≈ 12.9 mM) | 1.1 |
